Measured values reported in publication doi:10.1101/2021.11.05.467463v1 (biorxiv, 2021).
In brackets after ≈: the same amount, converted by molar mass. One block for each molecule: values may come before it.

Assays:
[1] = target: T1, PfPKG (Plasmodium falciparum, UniProt Q8I719); assay: in vitro PfPKG enzyme inhibition assay; format: biochemical; conditions: […] compound
[2] = mouse, microsomes
[3] = physchem; conditions: water
[4] = target: T1, PfPKG; assay: in vitro PfPKG enzyme inhibition assay; format: biochemical
[5] = target: CYP3A4 (Homo sapiens, UniProt P08684); assay: in vitro CYP3A4 inhibition; format: biochemical
[6] = target: T1, PfPKG; assay: in vitro PfPKG enzyme inhibition assay; format: biochemical; conditions: […] compound; remark: listed apart in the source

T1 sequence (Q8I719 whole entry): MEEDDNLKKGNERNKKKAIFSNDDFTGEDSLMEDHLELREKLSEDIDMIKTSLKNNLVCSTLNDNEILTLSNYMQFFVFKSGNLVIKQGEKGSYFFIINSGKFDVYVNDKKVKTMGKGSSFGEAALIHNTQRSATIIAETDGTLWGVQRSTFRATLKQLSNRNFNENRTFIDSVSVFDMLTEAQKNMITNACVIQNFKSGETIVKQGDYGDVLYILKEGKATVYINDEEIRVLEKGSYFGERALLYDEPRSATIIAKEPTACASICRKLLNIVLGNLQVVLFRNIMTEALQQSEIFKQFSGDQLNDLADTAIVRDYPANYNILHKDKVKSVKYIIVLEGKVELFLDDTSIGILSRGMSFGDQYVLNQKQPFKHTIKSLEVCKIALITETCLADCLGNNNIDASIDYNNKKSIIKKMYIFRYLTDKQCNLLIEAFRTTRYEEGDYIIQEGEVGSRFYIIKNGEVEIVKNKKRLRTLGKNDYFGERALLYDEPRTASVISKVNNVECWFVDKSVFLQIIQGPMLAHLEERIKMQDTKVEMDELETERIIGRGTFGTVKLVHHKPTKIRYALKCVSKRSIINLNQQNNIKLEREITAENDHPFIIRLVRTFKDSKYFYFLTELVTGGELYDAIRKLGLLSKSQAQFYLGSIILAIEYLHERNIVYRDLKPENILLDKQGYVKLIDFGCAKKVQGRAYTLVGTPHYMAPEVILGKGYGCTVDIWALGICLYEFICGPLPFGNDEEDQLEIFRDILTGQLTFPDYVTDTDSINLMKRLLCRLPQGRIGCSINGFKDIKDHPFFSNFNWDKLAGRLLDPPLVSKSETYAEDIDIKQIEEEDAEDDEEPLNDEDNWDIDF
Chain of CYP3A4 (P08684 2-503): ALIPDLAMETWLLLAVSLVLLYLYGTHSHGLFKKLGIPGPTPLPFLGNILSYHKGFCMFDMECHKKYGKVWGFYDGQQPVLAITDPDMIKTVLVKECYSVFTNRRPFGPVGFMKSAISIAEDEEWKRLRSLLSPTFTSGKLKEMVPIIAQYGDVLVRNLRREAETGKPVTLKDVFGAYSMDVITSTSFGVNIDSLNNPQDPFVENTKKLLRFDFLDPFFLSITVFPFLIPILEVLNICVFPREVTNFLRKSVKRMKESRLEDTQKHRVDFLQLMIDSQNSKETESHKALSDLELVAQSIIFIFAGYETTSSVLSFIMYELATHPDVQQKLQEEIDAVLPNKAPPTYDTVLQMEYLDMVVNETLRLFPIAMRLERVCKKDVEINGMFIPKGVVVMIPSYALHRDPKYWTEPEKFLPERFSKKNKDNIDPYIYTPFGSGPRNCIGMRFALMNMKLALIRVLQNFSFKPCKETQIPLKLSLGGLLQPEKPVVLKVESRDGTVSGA

MLM t1/2 [2]: < 2 min
solubility [3]: 92 µM (≈ 42.1 µg/mL)
SMILES: O=C(c1nccs1)N1CC[C@@H](Nc2nccc(-n3cc(C4CC4)nc3-c3ccccc3)n2)C1 [14a]

% inhib @ 1 μM [6]: 47%
SMILES: Cc1cn(-c2ccnc(N[C@@H]3CCN(C(=O)c4nccs4)C3)n2)c(-c2ccccc2Cl)n1 [18b]

MLM t1/2 [2]: <2 min
solubility [3]: 28 µM (≈ 13.8 µg/mL)
SMILES: O=C(c1nccs1)N1CC[C@@H](Nc2nccc(-n3cc(C4CC4)nc3-c3cccc(Cl)c3)n2)C1 [14b]

The remaining lines, values behind:

SMILES: Cc1cn(-c2ccnc(NCC3CCCN3C(=O)c3nccs3)n2)c(-c2ccccc2)n1 (racemic) [10f]
% inh @ 1 μM [1]: 3%

SMILES: Cc1cn(-c2ccnc(NC3CCN(C(=O)c4nccs4)CC3)n2)c(-c2ccccc2)n1 [10e]
% inh @ 1 μM [1]: 5%

SMILES: CN1CCC(c2cc(-c3ccc(F)cc3)c(-c3ccncc3)[nH]2)CC1 [compound 5, pyrrole 5]
IC50 [4]: 22 nM

SMILES: Cc1cn(-c2ccnc(N[C@H]3CCN(C(=O)c4nccs4)C3)n2)c(-c2ccccc2)n1 [10c]
% inh @ 1 μM [1]: 4%

SMILES: Cc1cn(-c2ccnc(NC3CCCN(C(=O)c4nccs4)C3)n2)c(-c2ccccc2)n1 (racemic) [10d]
% inh @ 1 μM [1]: 4%

SMILES: Cc1cn(-c2ccnc(N[C@@H]3CCN(C(=O)c4nccs4)C3)n2)c(-c2ccccc2)n1 [10a]
IC50 [5]: 940 nM
